Assay results from patent US9403827B2, “Substituted purinone compounds” (NOVARTIS AG, priority 2013, dated 2016).

Legend:
Type in all cases: binding
[1] = target: T1, human MDM2 protein (amino acids 2-188) (Homo sapiens (Human), UniProt Q00987); test: TR-FRET p53-MDM2 Assay 1; conditions: 1.25 nM MDM2-biotinylated, 10 nM Cy5-p53 peptide
Description: (§1) Time Resolved Fluorescence Energy Transfer (TR-FRET) Assay
(§2) The inhibition of p53-MDM2 and p53-MDM4 interactions is measured by time resolved fluorescence energy transfer (TR-FRET). Fluorescence energy transfer (or Foerster resonance energy transfer) describes an energy transfer between donor and acceptor fluorescent molecules. For this assay, human MDM2 protein (amino acids 2-188) and human MDM4 protein (amino acids 2-185), tagged with a C-terminal biotin moiety, are used in combination with a Europium labeled streptavidin (Perkin Elmer, Inc., Waltham, Mass., USA) serving as the donor fluorophore. The p53 derived, Cy5 labeled peptide Cy5-TFSDLWKLL (p53 aa18-26) is the energy acceptor. Upon excitation of the donor molecule at 340 nm, binding interaction between MDM2 or MDM4 and the p53 peptide induces energy transfer and enhanced response at the acceptor emission wavelength at 665 nm.
(§3) Disruption of the formation of the p53-MDM2 or p53-MDM4 complex due to an inhibitor molecule binding to the p53 binding site of MDM2 or MDM4 results in increased donor emission at 620 nm. The ratiometric FRET assay readout is calculated from the raw data of the two distinct fluorescence signals measured in time resolved mode (fluorescence 665 nm/fluorescence 620 nm×1000).
(§4) The test is performed in white 384-well plates (Greiner Bio-One, reference 781207) in a total volume of 60 μL by adding 1 μL of compounds tested at different concentrations diluted in 100% DMSO (1.7% final DMSO concentration) in reaction buffer (PBS, 125 mM NaCl, 0.001% Novexin (consists of carbohydrate polymers), designed to increase the solubility and stability of proteins; Expedeon Ltd., Cambridgeshire, United Kingdom), 0.01% Gelatin, 0.01% 0.2%, Pluronic F-127 (block copolymer from ethylenoxide and propyleneoxide), 1 mM DTT). After addition of 1.25 nM MDM2-biotinylated or 2.5 nM MDM4-biotinylated (internal preparations, both MDM2 and MDM4 are biotinylated at the C-terminal of the peptide construct), and 0.625 nM Europium labeled streptavidin (Perkin Elmer), the solution is pre-incubated for 15 minutes at room temperature, then 10 nM Cy5-p53 peptide (internal preparation, the Cy5 dye is directly bound to the N-terminal part of p53 peptide construct) is added before an incubation at room temperature for 15 minutes prior to reading the plate. For measurement of samples, a Victor II microplate reader (Perkin Elmer) is used with the following settings: Excitation 340 nm, Emission Donor 620 nm and Emission Acceptor 665 nm. IC50 values are calculated by curve fitting using XLfit. If not specified, reagents are purchased from Sigma-Aldrich Chemie GmBH, Buchs, Switzerland.
(§5) This assay was used to evaluate compounds displaying inhibition of p53-MDM2 interaction and p53-MDM4 interaction at IC50s of 0.005 to 50 μM (p53-MDM2 Assay 1 and p53-MDM4 Assay 1, respectively). For selected compounds displaying IC50s between […] on MDM2, a slightly modified assay is used with the following adaptations: 0.1 nM MDM2, 0.1 nM Europium labeled streptavidin and Tecan genios Pro is used as a microplate reader for the fluorescence measurements (p53-MDM2 Assay 2).

[2] = target: human MDM4 protein (amino acids 2-185) (Homo sapiens (Human), UniProt O15151); test: TR-FRET p53-MDM4 Assay 1; conditions: 2.5 nM MDM4-biotinylated, 10 nM Cy5-p53 peptide
Description: as §1, §2, §3, §4, §5

[3] = target: T1, human MDM2 protein (amino acids 2-188); test: TR-FRET p53-MDM2 Assay 2 (modified: 0.1 nM MDM2); conditions: 0.1 nM MDM2, 0.1 nM Europium labeled streptavidin, Tecan genios Pro reader
Description: as §1, §2, §3, §4, §5

T1 sequence (Q00987 2-188): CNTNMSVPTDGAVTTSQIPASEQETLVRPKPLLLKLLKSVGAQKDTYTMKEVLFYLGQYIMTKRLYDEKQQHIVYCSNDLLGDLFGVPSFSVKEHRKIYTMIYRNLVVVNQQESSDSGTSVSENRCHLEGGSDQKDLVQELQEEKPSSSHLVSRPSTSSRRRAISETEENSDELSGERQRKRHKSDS
human MDM4 protein (amino acids 2-185), sequence (O15151 2-185): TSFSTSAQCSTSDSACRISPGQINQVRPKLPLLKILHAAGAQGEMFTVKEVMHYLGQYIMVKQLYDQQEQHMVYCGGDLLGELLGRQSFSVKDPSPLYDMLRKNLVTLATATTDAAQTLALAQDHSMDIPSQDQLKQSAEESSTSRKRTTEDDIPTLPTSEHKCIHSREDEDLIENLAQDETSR

Compound | IC50 [3] [nM] | also measured
COc1ccccc1-c1nc2c(n1C(C)C)C(c1ccc(Cl)cc1C)N(c1cc(Cl)ccc1C)C(=O)N2 (stereo not shown) [Example 3, 6-(4-Chloro-2-methylphenyl)-1-(5-chloro-2-methylphenyl)-7-isopropyl-8-(2-methoxyphenyl)-6,7-dihydro-1H-purin-2(3H)-one] |  | IC50 [1]: 0.0018 µM; IC50 [2]: 1.45 µM
CC(C)n1c(Br)nc2c1C(c1ccc(Cl)cc1)N(c1cccc(Cl)c1F)C(=O)N2 (stereo not shown) [Example 5, 8-Bromo-1-(3-chloro-2-fluorophenyl)-6-(4-chlorophenyl)-7-isopropyl-6,7-dihydro-1H-purin-2(3H)-one] |  | IC50 [1]: 0.12 µM
COc1ccc(C(=O)NCCO)cc1-c1nc2c(n1C(C)C)C(c1ccc(Cl)cc1C)N(c1cc(Cl)ccc1C)C(=O)N2 (stereo not shown) [Example 8, 3-[1-(5-Chloro-2-methyl-phenyl)-6-(4-chloro-2-methyl-phenyl)-7-isopropyl-2-oxo-2,3,6,7-tetrahydro-1H-purin-8-yl]-N-(2-hydroxy-ethyl)-4-methoxy-benzamide] | 0.447 | 
COc1ccc(CO)cc1-c1nc2c(n1C(C)C)C(c1ccc(Cl)cc1C)N(c1cc(Cl)ccc1C)C(=O)N2 (stereo not shown) [Example 11, 1-(5-Chloro-2-methyl-phenyl)-6-(4-chloro-2-methyl-phenyl)-8-(5-hydroxymethyl-2-methoxy-phenyl)-7-isopropyl-1,3,6,7-tetrahydro-purin-2-one] | 0.371 | 
COc1ccccc1-c1nc2c(n1C(C)C)C(c1ccc(C#N)cc1)N(c1cc(Cl)ccc1C)C(=O)N2 (stereo not shown) [Example 13, 4-[1-(5-Chloro-2-methyl-phenyl)-7-isopropyl-8-(2-methoxy-phenyl)-2-oxo-2,3,6,7-tetrahydro-1H-purin-6-yl]-benzonitrile] | 0.724 | 
COc1ncc(-c2nc3c(n2C(C)C)C(c2ccc(Cl)cc2C)N(c2cc(Cl)c(=O)n(C)c2)C(=O)N3)c(OC)n1 (stereo not shown) [Example 16, 1-(5-Chloro-1-methyl-6-oxo-1,6-dihydro-pyridin-3-yl)-6-(4-chloro-2-methyl-phenyl)-8-(2,4-dimethoxy-pyrimidin-5-yl)-7-isopropyl-1,3,6,7-tetrahydro-purin-2-one] | 3.11 | 
COc1ncc(-c2nc3c(n2C(C)C)C(c2ccc(Cl)c(F)c2)N(c2cc(Cl)cn(C)c2=O)C(=O)N3)c(OC)n1 (stereo not shown) [Example 17, 1-(5-Chloro-1-methyl-2-oxo-1,2-dihydropyridin-3-yl)-6-(4-chloro-3-fluorophenyl)-8-(2,4-dimethoxypyrimidin-5-yl)-7-isopropyl-6,7-dihydro-1H-purin-2(3H)-one] | 1.67 | 
COc1ncc(-c2nc3c(n2C(C)C)C(c2ccc(Cl)cc2)N(c2cc(Cl)cn(C)c2=O)C(=O)N3)c(OC)n1 (stereo not shown) [Example 18, 1-(5-Chloro-1-methyl-2-oxo-1,2-dihydropyridin-3-yl)-6-(4-chlorophenyl)-8-(2,4-dimethoxypyrimidin-5-yl)-7-isopropyl-6,7-dihydro-1H-purin-2(3H)-one] | 2.91 | 
COc1nc(N)ncc1-c1nc2c(n1C(C)C)C(c1ccc(Cl)cc1)N(c1cc(Cl)cn(C)c1=O)C(=O)N2 (stereo not shown) [Example 21, 8-(2-Amino-4-methoxypyrimidin-5-yl)-1-(5-chloro-1-methyl-2-oxo-1,2-dihydropyridin-3-yl)-6-(4-chlorophenyl)-7-isopropyl-6,7-dihydro-1H-purin-2(3H)-one] | 4.3 | 
COc1nc(N(C)C)ncc1-c1nc2c(n1C(C)C)C(c1ccc(Cl)c(F)c1)N(c1cc(Cl)cn(C)c1=O)C(=O)N2 (stereo not shown) [Example 24, 1-(5-Chloro-1-methyl-2-oxo-1,2-dihydropyridin-3-yl)-6-(4-chloro-3-fluorophenyl)-8-(2-(dimethylamino)-4-methoxypyrimidin-5-yl)-7-isopropyl-6,7-dihydro-1H-purin-2(3H)-one] | 0.748 | 
COc1ncc(-c2nc3c(n2C(C)C)C(c2ccc(Cl)c(F)c2)N(c2cc(Cl)c[nH]c2=O)C(=O)N3)c(OC)n1 (stereo not shown) [Example 25, 1-(5-Chloro-2-oxo-1,2-dihydropyridin-3-yl)-6-(4-chloro-3-fluorophenyl)-8-(2,4-dimethoxypyrimidin-5-yl)-7-isopropyl-6,7-dihydro-1H-purin-2(3H)-one] | 0.356 | 

Continued, in another order:

IC50 [3] [nM] | Compound | also measured
0.531 | COc1ccc(F)cc1-c1nc2c(n1C(C)C)C(c1ccc(Cl)cc1C)N(c1cc(Cl)ccc1C)C(=O)N2 (stereo not shown) [Example 7, 1-(5-Chloro-2-methyl-phenyl)-6-(4-chloro-2-methyl-phenyl)-8-(5-fluoro-2-methoxy-phenyl)-7-isopropyl-1,3,6,7-tetrahydro-purin-2-one] | 
0.21 | CNC(=O)c1ccc(OC)c(-c2nc3c(n2C(C)C)C(c2ccc(Cl)cc2C)N(c2cc(Cl)ccc2C)C(=O)N3)c1 (stereo not shown) [Example 9, 3-[1-(5-Chloro-2-methyl-phenyl)-6-(4-chloro-2-methyl-phenyl)-7-isopropyl-2-oxo-2,3,6,7-tetrahydro-1H-purin-8-yl]-4-methoxy-N-methyl-benzamide] | 
0.432 | COc1ccc(C(=O)N(C)C)cc1-c1nc2c(n1C(C)C)C(c1ccc(Cl)cc1C)N(c1cc(Cl)ccc1C)C(=O)N2 (stereo not shown) [Example 10, 3-[1-(5-Chloro-2-methyl-phenyl)-6-(4-chloro-2-methyl-phenyl)-7-isopropyl-2-oxo-2,3,6,7-tetrahydro-1H-purin-8-yl]-4-methoxy-N,N-dimethyl-benzamide] | 
0.414 | COc1ccc(C#N)cc1-c1nc2c(n1C(C)C)C(c1ccc(Cl)cc1C)N(c1cc(Cl)ccc1C)C(=O)N2 (stereo not shown) [Example 12, 3-[1-(5-Chloro-2-methyl-phenyl)-6-(4-chloro-2-methyl-phenyl)-7-isopropyl-2-oxo-2,3,6,7-tetrahydro-1H-purin-8-yl]-4-methoxy-benzonitrile] | 
0.473 | COc1ccccc1-c1nc2c(n1C(C)C)C(c1ccc(C#N)cc1)N(c1cccc(Cl)c1F)C(=O)N2 (stereo not shown) [Example 14, 4-(1-(3-Chloro-2-fluorophenyl)-7-isopropyl-8-(2-methoxyphenyl)-2-oxo-2,3,6,7-tetrahydro-1H-purin-6-yl)benzonitrile] | 
0.451 | COc1ncc(-c2nc3c(n2C(C)C)C(c2ccc(Cl)c(F)c2)N(c2ccc(F)c(Cl)c2)C(=O)N3)c(OC)n1 (stereo not shown) [Example 15, 6-(4-Chloro-3-fluorophenyl)-1-(3-chloro-4-fluorophenyl)-8-(2,4-dimethoxypyrimidin-5-yl)-7-isopropyl-6,7-dihydro-1H-purin-2(3H)-one] | 
0.93 | COc1ncc(-c2nc3c(n2C(C)C)C(c2ccc(Cl)c(F)c2)N(c2cc(Cl)c(=O)n(C)c2)C(=O)N3)c(OC)n1 (stereo not shown) [Example 19, 1-(5-Chloro-1-methyl-6-oxo-1,6-dihydropyridin-3-yl)-6-(4-chloro-3-fluorophenyl)-8-(2,4-dimethoxypyrimidin-5-yl)-7-isopropyl-6,7-dihydro-1H-purin-2(3H)-one] | 
0.354 | COc1nc(N(C)C)ncc1-c1nc2c(n1C(C)C)C(c1ccc(Cl)c(F)c1)N(c1cc(Cl)c[nH]c1=O)C(=O)N2 (stereo not shown) [Example 20, 1-(5-Chloro-2-oxo-1,2-dihydropyridin-3-yl)-6-(4-chloro-3-fluorophenyl)-8-(2-(dimethylamino)-4-methoxypyrimidin-5-yl)-7-isopropyl-6,7-dihydro-1H-purin-2(3H)-one] | 
0.587 | COc1nc(N(C)C)ncc1-c1nc2c(n1C(C)C)C(c1ccc(Cl)cc1)N(c1cc(Cl)cn(C)c1=O)C(=O)N2 (stereo not shown) [Example 22, 1-(5-Chloro-1-methyl-2-oxo-1,2-dihydropyridin-3-yl)-6-(4-chlorophenyl)-8-(2-(dimethylamino)-4-methoxypyrimidin-5-yl)-7-isopropyl-6,7-dihydro-1H-purin-2(3H)-one] | 
0.385 | COc1nc(N(C)C)ncc1-c1nc2c(n1C(C)C)C(c1ccc(Cl)c(F)c1)N(c1ccc(F)c(Cl)c1)C(=O)N2 (stereo not shown) [Example 23, 6-(4-Chloro-3-fluorophenyl)-1-(3-chloro-4-fluorophenyl)-8-(2-(dimethylamino)-4-methoxypyrimidin-5-yl)-7-isopropyl-6,7-dihydro-1H-purin-2(3H)-one] | 
